# According to the NIST ThermoML archive (doi:10.1021/je050134y):
# ± gives the expanded uncertainty stated by the source.
# Assay: activity coefficient (dimensionless); of the first substance listed, at infinite dilution; xn = mol fraction of the nth substance listed
# Conditions: 298 K; 101.3 kPa; Liquid; Chromatography; x1 = 0
row,activity coefficient,SMILES
1,1.75 ± 0.12,CCO [ethanol] + CCCCCCCC[n+]1ccn(C)c1.F[B-](F)(F)F
2,32.7 ± 2.2,C=CCCCCCCCCCC [1-dodecene] + CCCCCCCC[n+]1ccn(C)c1.F[B-](F)(F)F
3,2.58 ± 0.18,CCCCCCO [hexan-1-ol] + CCCCCCCC[n+]1ccn(C)c1.F[B-](F)(F)F
4,25.8 ± 1.8,C=CCCCCCCCCC [1-undecene] + CCCCCCCC[n+]1ccn(C)c1.F[B-](F)(F)F
5,1.07 ± 0.07,CO [methanol] + CCCCCCCC[n+]1ccn(C)c1.F[B-](F)(F)F
6,13.1 ± 0.9,C=CCCCCCC [oct-1-ene] + CCCCCCCC[n+]1ccn(C)c1.F[B-](F)(F)F
7,5.08 ± 0.35,C=CCCC [1-pentene] + CCCCCCCC[n+]1ccn(C)c1.F[B-](F)(F)F
8,77.9 ± 5.3,CCCCCCCCCCCC [dodecane] + CCCCCCCC[n+]1ccn(C)c1.F[B-](F)(F)F
9,60.9 ± 4.2,CCCCCCCCCCC [undecane] + CCCCCCCC[n+]1ccn(C)c1.F[B-](F)(F)F
10,16 ± 1.1,CCCCCCC [heptane] + CCCCCCCC[n+]1ccn(C)c1.F[B-](F)(F)F
11,21.4 ± 1.5,C=CCCCCCCCC [1-decene] + CCCCCCCC[n+]1ccn(C)c1.F[B-](F)(F)F
12,28.4 ± 1.9,CCCCCCCCC [nonane] + CCCCCCCC[n+]1ccn(C)c1.F[B-](F)(F)F
13,12.4 ± 0.8,CCCCCC [hexane] + CCCCCCCC[n+]1ccn(C)c1.F[B-](F)(F)F
14,2.18 ± 0.15,CCCO [propan-1-ol] + CCCCCCCC[n+]1ccn(C)c1.F[B-](F)(F)F
15,2.69 ± 0.18,"C1=CCCC=C1 [1,3-cyclohexadiene] + CCCCCCCC[n+]1ccn(C)c1.F[B-](F)(F)F"
16,16.5 ± 1.1,C=CCCCCCCC [1-nonene] + CCCCCCCC[n+]1ccn(C)c1.F[B-](F)(F)F
17,22 ± 1.5,CCCCCCCC [octane] + CCCCCCCC[n+]1ccn(C)c1.F[B-](F)(F)F
18,2.38 ± 0.16,CCCCCO [pentan-1-ol] + CCCCCCCC[n+]1ccn(C)c1.F[B-](F)(F)F
19,9.07 ± 0.62,CCCCC [pentane] + CCCCCCCC[n+]1ccn(C)c1.F[B-](F)(F)F
20,36.4 ± 2.5,CCCCCCCCCC [decane] + CCCCCCCC[n+]1ccn(C)c1.F[B-](F)(F)F
21,7.06 ± 0.48,C=CCCCC [hex-1-ene] + CCCCCCCC[n+]1ccn(C)c1.F[B-](F)(F)F
22,2.32 ± 0.16,CCCCO [butan-1-ol] + CCCCCCCC[n+]1ccn(C)c1.F[B-](F)(F)F
23,9.76 ± 0.67,C=CCCCCC [1-heptene] + CCCCCCCC[n+]1ccn(C)c1.F[B-](F)(F)F
